Reference: the kinase profiling compilation of Christmann-Franck et al. (2016)

Experiments:
Test in all cases: radiometric filter-binding kinase assay
[1] = tested on: AKT2 (human), P31751 [S474D]
[2] = target: AURKB (human) (UniProt Q96GD4)
[3] = target: CAMKK2 (human) (UniProt Q96RR4)
[4] = target: CDK2 CCNA2 (human) (UniProt P20248+P24941)
[5] = target: CHEK1 (human) (UniProt O14757)
[6] = target: CSNK2A1 (human) (UniProt P68400)
[7] = target: CaMK1 (human) (UniProt Q14012)
[8] = target: DYRK1A (human) (UniProt Q13627)
[9] = target: EPHB3 (human) (UniProt P54753)
[10] = target: IGF1R (human) (UniProt P08069)
[11] = target: INSR (human) (UniProt P06213)
[12] = target: INSRR (human) (UniProt P14616)
[13] = target: JAK2 JH1 JH2 (human) (UniProt O60674)
[14] = tested on: LCK (mouse); conditions: accession and sequence are those of the human protein
[15] = target: MAP2K1 (human) (UniProt Q02750)
[16] = target: MAP3K11 (human) (UniProt Q16584)
[17] = target: MAP3K9 (human) (UniProt P80192)
[18] = target: MAPK10 (human) (UniProt P53779)
[19] = target: MAPK13 (human) (UniProt O15264)
[20] = target: MARK3 (human) (UniProt P27448)
[21] = target: MARK4 (human) (UniProt Q96L34)
[22] = target: MINK1 (human) (UniProt Q8N4C8)
[23] = target: MKNK1 (human) (UniProt Q9BUB5)
[24] = target: MST4 (human) (UniProt Q9P289)
[25] = target: NTRK1 (human) (UniProt P04629)
[26] = target: NUAK1 (human) (UniProt O60285)
[27] = target: PAK4 (human) (UniProt O96013)
[28] = target: PHKG1 (human) (UniProt Q16816)
[29] = target: PIM2 (human) (UniProt Q9P1W9)
[30] = target: PRKACA (human) (UniProt P17612)
[31] = target: PRKCZ (human) (UniProt Q05513)
[32] = target: RIPK2 (human) (UniProt O43353)
[33] = target: SRC (human) (UniProt P12931)
[34] = target: SYK (human) (UniProt P43405)
[35] = target: YES1 (human) (UniProt P07947)

Sequence of MST4 (human) (Q9P289 whole entry, looked up): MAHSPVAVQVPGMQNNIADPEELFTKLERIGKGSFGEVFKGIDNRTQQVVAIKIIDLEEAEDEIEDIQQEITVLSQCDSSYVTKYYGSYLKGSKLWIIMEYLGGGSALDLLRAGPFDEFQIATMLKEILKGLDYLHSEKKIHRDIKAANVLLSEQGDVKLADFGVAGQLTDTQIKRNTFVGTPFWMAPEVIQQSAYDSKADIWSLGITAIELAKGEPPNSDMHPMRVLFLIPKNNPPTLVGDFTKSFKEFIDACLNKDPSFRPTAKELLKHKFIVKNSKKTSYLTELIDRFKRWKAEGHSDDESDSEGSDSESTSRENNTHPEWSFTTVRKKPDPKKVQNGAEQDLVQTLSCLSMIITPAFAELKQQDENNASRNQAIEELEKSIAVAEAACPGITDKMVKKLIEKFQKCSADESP
Sequence of PAK4 (human) (O96013 whole entry, looked up): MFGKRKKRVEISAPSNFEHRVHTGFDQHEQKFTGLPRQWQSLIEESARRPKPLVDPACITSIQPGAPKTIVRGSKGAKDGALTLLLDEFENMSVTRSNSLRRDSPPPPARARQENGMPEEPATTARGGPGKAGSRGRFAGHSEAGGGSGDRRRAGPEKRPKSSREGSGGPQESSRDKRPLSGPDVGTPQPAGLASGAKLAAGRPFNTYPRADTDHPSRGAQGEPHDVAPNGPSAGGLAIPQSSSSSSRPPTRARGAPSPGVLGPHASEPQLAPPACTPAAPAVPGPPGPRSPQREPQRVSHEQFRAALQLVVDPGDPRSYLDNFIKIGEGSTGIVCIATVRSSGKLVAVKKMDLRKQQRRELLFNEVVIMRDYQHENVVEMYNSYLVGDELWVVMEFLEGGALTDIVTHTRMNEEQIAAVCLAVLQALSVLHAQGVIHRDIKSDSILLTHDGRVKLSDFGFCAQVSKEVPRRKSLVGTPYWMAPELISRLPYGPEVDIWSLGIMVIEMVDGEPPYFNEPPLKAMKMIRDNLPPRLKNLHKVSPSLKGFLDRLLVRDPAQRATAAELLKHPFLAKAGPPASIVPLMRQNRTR
Sequence of IGF1R (human) (P08069 whole entry, looked up): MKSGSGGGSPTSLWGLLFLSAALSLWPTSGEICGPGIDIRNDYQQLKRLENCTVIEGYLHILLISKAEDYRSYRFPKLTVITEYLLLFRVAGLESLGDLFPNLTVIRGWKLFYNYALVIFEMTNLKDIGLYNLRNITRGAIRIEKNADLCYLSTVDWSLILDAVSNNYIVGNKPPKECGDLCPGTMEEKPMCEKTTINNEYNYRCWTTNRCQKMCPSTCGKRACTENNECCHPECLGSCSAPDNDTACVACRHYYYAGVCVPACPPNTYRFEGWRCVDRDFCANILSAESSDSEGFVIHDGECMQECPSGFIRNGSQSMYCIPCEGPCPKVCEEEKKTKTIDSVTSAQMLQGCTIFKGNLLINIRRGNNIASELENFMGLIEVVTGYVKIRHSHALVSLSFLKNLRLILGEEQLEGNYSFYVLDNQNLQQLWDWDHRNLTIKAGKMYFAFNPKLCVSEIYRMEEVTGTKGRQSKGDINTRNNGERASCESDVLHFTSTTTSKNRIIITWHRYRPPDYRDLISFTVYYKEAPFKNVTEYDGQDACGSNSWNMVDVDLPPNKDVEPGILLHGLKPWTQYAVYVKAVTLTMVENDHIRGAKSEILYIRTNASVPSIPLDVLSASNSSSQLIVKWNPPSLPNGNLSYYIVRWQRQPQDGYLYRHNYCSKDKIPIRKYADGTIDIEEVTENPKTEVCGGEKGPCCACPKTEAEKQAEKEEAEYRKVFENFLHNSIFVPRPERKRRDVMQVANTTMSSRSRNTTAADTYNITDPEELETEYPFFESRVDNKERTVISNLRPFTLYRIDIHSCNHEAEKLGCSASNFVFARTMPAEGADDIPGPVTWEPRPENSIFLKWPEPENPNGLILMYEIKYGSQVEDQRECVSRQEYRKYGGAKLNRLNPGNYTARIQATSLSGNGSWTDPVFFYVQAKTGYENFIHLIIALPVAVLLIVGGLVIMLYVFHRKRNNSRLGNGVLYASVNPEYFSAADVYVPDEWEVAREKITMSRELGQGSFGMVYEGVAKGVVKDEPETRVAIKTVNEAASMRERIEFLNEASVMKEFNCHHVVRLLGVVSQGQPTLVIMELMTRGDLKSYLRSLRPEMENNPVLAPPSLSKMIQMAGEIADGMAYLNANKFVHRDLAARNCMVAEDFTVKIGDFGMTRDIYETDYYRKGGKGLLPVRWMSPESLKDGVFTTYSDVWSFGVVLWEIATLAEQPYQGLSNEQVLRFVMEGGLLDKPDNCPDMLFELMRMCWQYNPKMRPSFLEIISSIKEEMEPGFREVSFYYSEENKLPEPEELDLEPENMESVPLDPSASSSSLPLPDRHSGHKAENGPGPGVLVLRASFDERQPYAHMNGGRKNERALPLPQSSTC
Sequence of MAP2K1 (human) (Q02750 whole entry, looked up): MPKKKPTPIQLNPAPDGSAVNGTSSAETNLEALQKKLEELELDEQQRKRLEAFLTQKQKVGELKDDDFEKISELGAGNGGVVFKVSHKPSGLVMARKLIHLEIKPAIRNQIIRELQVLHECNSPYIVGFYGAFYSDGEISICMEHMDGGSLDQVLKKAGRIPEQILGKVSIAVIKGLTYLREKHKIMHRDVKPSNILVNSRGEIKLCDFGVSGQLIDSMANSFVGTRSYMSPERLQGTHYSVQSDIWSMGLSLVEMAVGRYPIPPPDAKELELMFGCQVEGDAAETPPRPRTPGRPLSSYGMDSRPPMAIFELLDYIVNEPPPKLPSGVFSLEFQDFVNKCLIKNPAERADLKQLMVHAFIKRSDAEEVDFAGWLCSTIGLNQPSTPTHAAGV
Sequence of MARK3 (human) (P27448 whole entry, looked up): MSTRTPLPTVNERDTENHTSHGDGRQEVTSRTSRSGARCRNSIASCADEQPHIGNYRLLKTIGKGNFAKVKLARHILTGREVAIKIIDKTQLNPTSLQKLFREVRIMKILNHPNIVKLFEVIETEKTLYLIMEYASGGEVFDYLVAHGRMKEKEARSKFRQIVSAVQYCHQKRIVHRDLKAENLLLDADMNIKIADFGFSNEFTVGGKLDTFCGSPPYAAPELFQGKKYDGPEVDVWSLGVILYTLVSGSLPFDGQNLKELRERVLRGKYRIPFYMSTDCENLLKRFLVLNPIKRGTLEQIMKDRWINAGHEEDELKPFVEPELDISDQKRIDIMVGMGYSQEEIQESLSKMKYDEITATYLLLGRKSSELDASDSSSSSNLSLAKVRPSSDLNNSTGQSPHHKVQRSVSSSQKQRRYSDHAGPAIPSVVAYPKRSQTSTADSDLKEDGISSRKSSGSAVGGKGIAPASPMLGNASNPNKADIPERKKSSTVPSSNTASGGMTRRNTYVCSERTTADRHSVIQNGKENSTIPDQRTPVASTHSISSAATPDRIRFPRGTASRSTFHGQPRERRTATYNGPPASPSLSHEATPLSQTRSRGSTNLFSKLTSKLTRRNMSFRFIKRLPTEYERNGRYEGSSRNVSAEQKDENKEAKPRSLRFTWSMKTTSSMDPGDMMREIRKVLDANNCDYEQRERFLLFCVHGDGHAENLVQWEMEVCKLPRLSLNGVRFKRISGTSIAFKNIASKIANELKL
Sequence of CaMK1 (human) (Q14012 whole entry, looked up): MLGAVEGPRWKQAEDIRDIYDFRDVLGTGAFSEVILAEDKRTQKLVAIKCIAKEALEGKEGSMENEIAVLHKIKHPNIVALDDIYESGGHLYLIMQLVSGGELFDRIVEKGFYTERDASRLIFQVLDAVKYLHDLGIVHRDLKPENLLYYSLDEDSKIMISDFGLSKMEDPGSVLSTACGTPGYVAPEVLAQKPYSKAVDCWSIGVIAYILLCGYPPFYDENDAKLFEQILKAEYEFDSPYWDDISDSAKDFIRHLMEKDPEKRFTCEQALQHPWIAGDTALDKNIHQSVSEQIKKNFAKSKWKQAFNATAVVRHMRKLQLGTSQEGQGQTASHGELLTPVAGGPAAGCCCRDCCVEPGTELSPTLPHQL
Sequence of MAPK10 (human) (P53779 whole entry, looked up): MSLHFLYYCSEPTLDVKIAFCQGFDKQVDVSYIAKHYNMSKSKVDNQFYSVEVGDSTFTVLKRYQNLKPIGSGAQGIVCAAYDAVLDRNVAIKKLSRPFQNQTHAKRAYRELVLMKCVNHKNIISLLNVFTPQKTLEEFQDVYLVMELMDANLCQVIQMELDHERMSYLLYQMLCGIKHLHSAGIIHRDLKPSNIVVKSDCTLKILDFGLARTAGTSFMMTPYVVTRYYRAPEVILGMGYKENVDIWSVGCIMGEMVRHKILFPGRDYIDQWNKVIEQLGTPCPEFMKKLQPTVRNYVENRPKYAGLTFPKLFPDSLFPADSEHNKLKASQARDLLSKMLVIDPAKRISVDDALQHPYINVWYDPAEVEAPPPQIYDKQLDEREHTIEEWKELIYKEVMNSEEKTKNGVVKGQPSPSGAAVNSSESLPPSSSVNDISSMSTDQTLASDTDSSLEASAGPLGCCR
Sequence of PIM2 (human) (Q9P1W9 whole entry, looked up): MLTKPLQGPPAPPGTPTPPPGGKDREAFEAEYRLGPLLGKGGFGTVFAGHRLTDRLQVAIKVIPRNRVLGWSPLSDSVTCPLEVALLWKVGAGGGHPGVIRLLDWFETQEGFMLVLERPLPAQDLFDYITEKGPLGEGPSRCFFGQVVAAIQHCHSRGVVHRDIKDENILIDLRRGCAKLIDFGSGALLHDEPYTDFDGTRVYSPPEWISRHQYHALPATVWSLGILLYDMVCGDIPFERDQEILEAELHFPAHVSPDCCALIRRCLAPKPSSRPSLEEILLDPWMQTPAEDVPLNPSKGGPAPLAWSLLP
Sequence of AURKB (human) (Q96GD4 whole entry, looked up): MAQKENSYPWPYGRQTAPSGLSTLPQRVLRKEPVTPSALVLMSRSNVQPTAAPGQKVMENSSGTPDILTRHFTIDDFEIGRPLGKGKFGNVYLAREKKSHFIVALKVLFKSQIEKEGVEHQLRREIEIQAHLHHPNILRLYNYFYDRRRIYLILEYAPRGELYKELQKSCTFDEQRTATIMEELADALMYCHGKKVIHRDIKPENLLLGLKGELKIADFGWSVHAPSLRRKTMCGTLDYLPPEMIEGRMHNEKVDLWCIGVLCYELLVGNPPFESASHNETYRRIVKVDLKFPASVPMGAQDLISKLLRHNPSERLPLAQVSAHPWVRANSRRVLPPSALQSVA

residual activity ([1]; compound 0.1 µM): 99%
residual activity ([1]; compound 1.0 µM): 108%
residual activity ([2]; compound 0.1 µM): 80%
residual activity ([2]; compound 1.0 µM): 54%
residual activity ([3]; compound 0.1 µM): 58%
residual activity ([3]; compound 1.0 µM): 21%
residual activity ([4]; compound 0.1 µM): 86%
residual activity ([4]; compound 1.0 µM): 47%
residual activity ([5]; compound 0.1 µM): 93%
residual activity ([5]; compound 1.0 µM): 57%
residual activity ([6]; compound 0.1 µM): 86%
residual activity ([6]; compound 1.0 µM): 86%
residual activity ([7]; compound 0.1 µM): 104%
residual activity ([7]; compound 1.0 µM): 101%
residual activity ([8]; compound 0.1 µM): 99%
residual activity ([8]; compound 1.0 µM): 106%
residual activity ([9]; compound 0.1 µM): 110%
residual activity ([9]; compound 1.0 µM): 101%
residual activity ([10]; compound 0.1 µM): 90%
residual activity ([10]; compound 1.0 µM): 105%
residual activity ([11]; compound 0.1 µM): 97%
residual activity ([11]; compound 1.0 µM): 100%
residual activity ([12]; compound 0.1 µM): 107%
residual activity ([12]; compound 1.0 µM): 118%
residual activity ([13]; compound 0.1 µM): 41%
residual activity ([13]; compound 1.0 µM): 14%
residual activity ([14]; compound 0.1 µM): 80%
residual activity ([14]; compound 1.0 µM): 67%
residual activity ([15]; compound 0.1 µM): 92%
residual activity ([15]; compound 1.0 µM): 84%
residual activity ([16]; compound 0.1 µM): 54%
residual activity ([16]; compound 1.0 µM): 8%
residual activity ([17]; compound 0.1 µM): 40%
residual activity ([17]; compound 1.0 µM): 16%
residual activity ([18]; compound 0.1 µM): 110%
residual activity ([18]; compound 1.0 µM): 97%
residual activity ([19]; compound 0.1 µM): 88%
residual activity ([19]; compound 1.0 µM): 90%
residual activity ([20]; compound 0.1 µM): 15%
residual activity ([20]; compound 1.0 µM): 1%
residual activity ([21]; compound 0.1 µM): 33%
residual activity ([21]; compound 1.0 µM): 29%
residual activity ([22]; compound 0.1 µM): 123%
residual activity ([22]; compound 1.0 µM): 103%
residual activity ([23]; compound 0.1 µM): 89%
residual activity ([23]; compound 1.0 µM): 96%
residual activity ([24]; compound 0.1 µM): 87%
residual activity ([24]; compound 1.0 µM): 94%
residual activity ([25]; compound 0.1 µM): 84%
residual activity ([25]; compound 1.0 µM): 47%
residual activity ([26]; compound 0.1 µM): 47%
residual activity ([26]; compound 1.0 µM): 11%
residual activity ([27]; compound 0.1 µM): 100%
residual activity ([27]; compound 1.0 µM): 79%
residual activity ([28]; compound 0.1 µM): 78%
residual activity ([28]; compound 1.0 µM): 28%
residual activity ([29]; compound 0.1 µM): 94%
residual activity ([29]; compound 1.0 µM): 85%
residual activity ([30]; compound 0.1 µM): 90%
residual activity ([30]; compound 1.0 µM): 100%
residual activity ([31]; compound 0.1 µM): 90%
residual activity ([31]; compound 1.0 µM): 95%
residual activity ([32]; compound 0.1 µM): 109%
residual activity ([32]; compound 1.0 µM): 112%
residual activity ([33]; compound 0.1 µM): 88%
residual activity ([33]; compound 1.0 µM): 70%
residual activity ([34]; compound 0.1 µM): 109%
residual activity ([34]; compound 1.0 µM): 93%
residual activity ([35]; compound 0.1 µM): 113%
residual activity ([35]; compound 1.0 µM): 71%
Structure (SMILES): O=C(NCCCNc1nc(Nc2cccc(CN3CCOCC3)c2)ncc1C1CC1)C1CCC1
